Experimental findings from patent US7625507B2, “Extrusion process for forming chemically stable drug multiparticulates” (Pfizer Inc., priority 2003, dated 2009) are described below.

The data set in a line: Lability of drug held in molten mixture for 60 minutes. It counts as physicochemical. Particulars: 50 wt % azithromycin dihydrate. Here is the method: The multiparticulates formed by the process of the present invention comprise a labile drug and a carrier. As used herein the term “labile” refers to drugs that degrade by at least 0.01 wt % when held in a molten mixture of drug, carrier and optional excipient(s) for 60 minutes. Details on carriers and optional excipients are discussed below. The term “drug” as used herein includes, by way of example and not of limitation, any physiologically or pharmacologically active substance that produces a localized or systemic effect in animals. The term “animals” includes mammals, particularly humans, as well as other animals.
Labile drugs may be identified experimentally by determining whether the drug chemically reacts or degrades when held in the molten mixture of drug, carrier and optional excipients for 60 minutes. In general, drug degradation may be measured using any conventional method for measuring the purity or potency of drug in a pharmaceutical composition. For example, the purity or potency of the drug substance prior to formation of the molten mixture may be measured using high-performance liquid chromatography (HPLC) or other analytical techniques well known in the art. […] The purity or potency of the drug after being in the molten mixture for 60 minutes is then determined. […]

In the case of `CC[C@H]1OC(=O)[C@H](C)[C@@H](O[C@H]2C[C@@](C)(OC)[C@@H](O)[C@H](C)O2)[C@H](C)[C@@H](O[C@@H]2O[C@H](C)C[C@H](N(C)C)[C@H]2O)[C@](C)(O)C[C@@H](C)CN(C)[C@H](C)[C@@H](O)[C@]1(C)O` [azithromycin, 9a-aza-9a-methyl-9-deoxo-9a-homoerythromycin A], the “lability in molten mixture” value reads like this: (47 wt % COMPRITOL 888 ATO, 3 wt % LUTROL F127 at 90° C. for 60 minutes) “labile”; (48 wt % microcrystalline wax, 2 wt % LUTROL F127, held 60 minutes) “not labile”.
